Laboratory results: a melting point compilation (Tetko et al.; mined from patent text by program, amines drawn as free bases though some values may be those of a salt)

Row | melting point [°C] | Compound
1 | 113 to 114 | CC(C)(C)C(=O)Oc1ccc(C(=O)c2ccc(Cl)cc2)cc1
2 | 114 to 116 | CCCN(CCC)CC(=O)OC1CC2(C)C(C#N)CCC2C2CCC3CC(O)CCC3(C)C12 (stereo not given)
3 | 192 to 193 | O=C(O)CCC(=O)C(=O)Nc1ccccc1
4 | 250 to 253 | Nc1c(F)c(N2CCCC2)c(F)c2c1c(=O)c(C(=O)O)cn2C1COC1
5 | 275 to 278 | CN1C(=O)c2cccnc2Nc2cc([N+](=O)[O-])ccc21
6 | 204 | Fc1ccc(Cn2c(NC3CCN(CCNc4nc5cccnc5s4)CC3)nc3ccccc32)cc1
7 | 174 to 178 | N#CCCNC(=O)c1cccc(-c2cccc3cc(Cc4cccc(C(F)(F)F)c4)[nH]c23)c1
8 | > 285 | COc1ccc(Nc2nc(-c3ccccc3)c(C(=O)c3sc(Nc4ccc(OC)cc4)nc3-c3ccccc3)s2)cc1
9 | 81.3 | CC(O)Cn1nc(Br)c([N+](=O)[O-])c1NCc1ccccc1 (stereo not given)
10 | 197 to 198 | Cc1c(NC(=O)c2ccc(C(C)(C)C)cc2)cccc1-c1cn(C)c(=O)c(Nc2ccc(C(C(=O)O)N(C)C(C)C)cc2)n1 (stereo not given)
11 | 74 to 76 | CCCCCCNC(=O)[C@@H](NC(=O)OC(C)(C)C)C(C)C
12 | 59 to 60 | COC(=O)CCCCC(NC(=O)c1ccccc1)C(C)=O (stereo not given)
13 | 141 to 145 | CC(C)(C)OC(=O)N1CCC(COc2ccc(N3CCCC3)cc2)CC1
14 | 92 to 93 | Cc1cc(CC(=O)c2ccc(F)cc2)on1
15 | > 250 | CN1C(=O)C(c2cccc(Br)c2)(C2CCN(C(=O)c3ccccc3)CC2)N=C1N (stereo not given)
16 | 97 | Oc1cccc(O)c1Cl
17 | 92 to 94 | CC(C)Oc1ccc(CCCOc2nn(C)cc2CC(=O)O)c(Oc2ncc(C(F)(F)F)cc2Cl)c1
18 | 138 | CCOP(=O)(CN1CCC(N(C)S(=O)(=O)c2ccc(Nc3nccc(Nc4ccc(F)c(F)c4)n3)cc2)CC1)OCC
19 | 107 to 109 | CCC(CC)c1nccc2c(CC(=O)O)cccc12

Row | melting point [°C] | Compound
20 | 97 to 100 | CC(O[Si](C)(C)C(C)(C)C)C1C(=O)NC1C1CCCC(OCCCl)C1O (stereo not given)
21 | 138 to 140 | Cc1ccn(-c2ccc(C)c(C(=O)c3cccc4c3Nc3ncccc3CN4)c2)n1
22 | 242 | CCOC(=O)c1ccc(N2CCN(Cc3cnc4c(c3)NC(=O)[C@@H]3CCCN43)CC2)cc1
23 | 85 to 86 | CCN(CC)C(=O)n1ccc(S(=O)(=O)c2ccc(C)c(C)c2)n1
24 | 218 to 220 | CC(=O)Nc1nc(CCc2ccc(NC3=NCCS3)cc2)cs1
25 | 158 to 159 | ClCCCCOc1ccc(OCCCCCl)cc1
26 | > 320 | CC(=O)c1ccc2nc3n(c2c1)CCC(=O)N3
27 | 164 to 165 | CCOC(=O)c1cc2cccc(N(C)S(=O)(=O)c3cccs3)c2[nH]1
28 | 113 to 115 | O=C(Nc1cccc(C(F)(F)F)c1)C(=O)N1CCC(Cc2ccc(F)cc2)CC1
29 | 248 to 250 | Oc1ccc2c(c1)CC(n1cc[nH]c1=S)CC2 (stereo not given)
30 | 207 to 209 | O=[N+]([O-])c1cc([N+](=O)[O-])c2[nH]c(C(F)(F)F)nc2c1N1CCCCC1
31 | 94 to 97 | CC(=O)C(C)Sc1cc(C(C)(C)C)c(O)c(C(C)(C)C)c1 (stereo not given)
32 | 67 to 83 | CCN(CC)c1ccc(C2(N(c3ccc(N(C)C)cc3)c3ccc(N(C)C)cc3)OC(=O)c3ccccc32)c(C)c1 (stereo not given)
33 | 216 to 221 | CC(OC(N)=O)c1cc2c3ccccc3n(C)c(=O)n2n1 (stereo not given)
34 | 88 | Cc1cc(CCCCCCCOc2ccc(C3=NCCO3)cc2Cl)on1
35 | 203 to 204 | Cc1nc(N2C[C@@H](O)CC2=O)sc1C(=O)NCc1ccccc1
36 | 147 to 149 | N#Cc1cccc(CN2C(=O)c3ccccc3C2=O)c1
37 | 125 to 127 | CC1(C)OC(=O)c2ccc(COc3c(F)cc([N+](=O)[O-])cc3F)cc21
38 | 170 | C[C@@H]1NC(=O)c2cccc([N+](=O)[O-])c2N[C@H]1C (relative stereo)

The remaining lines, values behind:

Row | Compound | melting point [°C]
39 | COc1nc(NC(=S)NS(=O)(=O)c2cccnc2)nc(OC)n1 | 158 to 160
40 | COC(=O)CC1CC(=O)Nc2ccccc21 (stereo not given) | 115 to 116
41 | COc1cccc(Oc2c(NS(=O)(=O)c3ccc(C(C)(C)C)cc3)ncnc2OCCOc2ncc(C(C)=O)cn2)c1 | 142 to 144
42 | COc1cc(Nc2c(C#N)cnc3cc(-c4ccc(CN5CCC[C@@H]5C(N)=O)o4)ccc23)c(Cl)cc1Cl | 121 to 126
43 | CC(=O)c1cc2c(c(O)c1Cl)C(C)(C)CC2(C)C | 78 to 80
44 | Cc1c(OCc2ccc([Si](C)(C)C)cc2)cnn(C(C)(C)C)c1=O | 93.5 to 95.5
45 | COc1ccc2c(c1)C(=O)C(n1ccnc1)CO2 (stereo not given) | 150 to 152
46 | CNC(=O)c1ccccc1Nc1nc(Nc2ccc3c(c2)N(C)C(=O)CCC3)ncc1Cl | 292 to 294
47 | CCc1cc([N+](=O)[O-])c(N)c([N+](=O)[O-])c1COC | 71 to 73
48 | CCCCOc1ccc(C(=O)c2cccc(C(=O)O)c2)c(OC)c1 | 144 to 145
49 | CN(c1cc(OCCCS(C)(=O)=O)cc2cc(C3=NCC(CN4CCN(S(C)(=O)=O)CC4)S3)[nH]c12)S(=O)(=O)c1ccccn1 (stereo not given) | 151 to 153
50 | O=C1NCCc2c1c1cccc(OCc3ccccc3)c1n2COCc1ccccc1 | 188 to 190
51 | CCOCCOCCOc1ccc(C(=O)OC)cc1F | 33 to 36.5
52 | Cc1ccc2c(NCc3ccc(NC(=O)c4ccc(F)cc4)cc3)nc(NC3CCN(Cc4ccccc4)CC3)nc2c1 | 135 to 138
53 | COc1ncc(OC)c(Cl)n1 | 78 to 80
54 | COC(=O)[C@@H](CC(C)C)NC(=O)C[C@H]1O[C@H](c2cccc(OC)c2OC)c2cc(Cl)ccc2N(CC(CO)(OC)OC)C1=O | 110 to 111
55 | N#CCCNC(=S)C1=CC(CF)(CF)Oc2cc(Cl)c(Cl)cc21 | 154 to 155
56 | CC1=CN(C)C2=NC(C)N(c3ccc(C#N)cc3)C2=C1 (stereo not given) | 260 to 262
57 | CC(=O)c1ccc(C=Cc2ccc(C(C)=O)s2)s1 | 248

Row | Compound | melting point [°C]
58 | CN1C(=O)CNC(c2cccc(Cl)c2)c2cc(C(=O)c3ccc(Cl)cc3)ccc21 (stereo not given) | 177
59 | Cc1ccc(C(c2ccc(C)cc2)(c2ccc(C)cc2)c2ccc(C#N)cc2)cc1 | 207 to 209
60 | ClCc1coc(-c2cc3c(s2)CCCC3)n1 | 102 to 103
61 | CCS(=O)(=O)c1ccc(-c2coc3ccc(-c4nnc(C)o4)nc23)cc1 | 246 to 247
62 | COc1ccccc1S(=O)(=O)N(C)c1cccc2cc(C3=NCC(CC(=O)Nc4nnc[nH]4)S3)[nH]c12 (stereo not given) | 208 to 209
63 | Cc1ccc(-c2nccc(C)n2)cc1 | 80 to 81
64 | Cc1nc(N2CCN(CC3CCC3)C2=O)sc1C(=O)NCc1cccnc1 | 136 to 137
65 | O=C(Nc1cccc(Br)c1)Nc1cc(NC(=O)Nc2cccc(Br)c2)cc(C(=O)O)c1 | > 300
66 | CC(O)CNC(=O)c1cc2ccccc2o1 (stereo not given) | 90 to 91
67 | Cn1cc(-c2cccc(N3Cc4cc(C(C)(C)C)ccc4C3=O)c2CO)cc(Nc2ccn(C3CC3)n2)c1=O | 173 to 175
68 | CC(COS(C)(=O)=O)N1c2ccc(Cl)cc2Sc2ccc(C#N)cc21 (racemic) | 132
69 | COC(=O)CCc1cc2cc(C(F)(F)F)ccc2n1S(=O)(=O)c1ccccc1 | 81 to 83
70 | CC(=O)CCNC(=O)n1cc(F)c(=O)[nH]c1=O | 158 to 159
71 | C#CCOCc1c(C)nc2c(OCc3ccccc3Cl)cccn12 | 95 to 95.5
72 | N#Cc1ccc(-c2ccc(OCc3ccc4ccccc4n3)cc2)c(-c2ccncc2)c1 | 190 to 193
73 | O=C(Nc1ccc(C2CCN(Cc3ccccc3)CC2)cc1)c1ccccc1-c1ccc(C(F)(F)F)cc1 | 134
74 | CCCCSC(=S)N1Cc2[nH]c3ccccc3c2CC1C(=O)O (stereo not given) | 163 to 164
75 | COC(=O)CSCc1cccc(-c2nc(=O)c3ccccc3s2)n1 | 108 to 110
76 | CCCCCCCCCCCCCCCCCCOc1cc(NC(=O)OC(C)(C)C)cc([N+](=O)[O-])c1 | 70 to 72

Row | Compound | melting point [°C]
77 | Cc1ccccc1C1NS(=O)(=O)c2ccccc21 (single isomer, unassigned; (+)) | 109 to 111
78 | COC(=O)c1ccc(C(=O)NS(=O)(=O)c2ccc(C(=O)NCCCc3ccccc3)cc2)cn1 | 240 to 242
79 | CCC(C)n1ncn(-c2ccc(N3CCN(c4ccc(OC)cc4)CC3)cn2)c1=O (stereo not given) | 139 to 140
80 | CN(C)CCOc1nc(NCc2cccs2)nc(Nc2cccc(C(F)(F)F)c2)n1 | 51 to 53
81 | O=C(NCc1cccs1)c1cc2ccnc(N(Cc3ccccc3)Cc3ccccc3)c2[nH]1 | 152 to 154
82 | CCOP(=O)(/C=C/c1cn(-c2ccccc2)nc1OCc1ccc(OCc2nc(/C=C/C(=O)O)oc2C)c(OC)c1)OCC | 89 to 90
83 | COC(=O)c1cc2cnc(SC)nc2n(Cc2ccc(OC)c(Cl)c2)c1=O | 191 to 193
84 | CN(C)C(=O)c1nn(-c2cccc(F)c2)c(=O)c2c1c1ccc(Cl)cc1n2C | 208 to 209
85 | CCOC(OCC)(c1ccc(F)cc1)C1CCN(CCc2c(C)nc3scc(C)n3c2=O)CC1 | 116
86 | CCOC(C)O[C@H]1C(=O)N[C@H]1C1CCCCC1 (stereo not given in full) | 87 to 89
87 | C=Cn1cc(C(=O)OCC)c(=O)c2cc(F)c(Cl)cc21 | 146 to 149
88 | COc1cc(CNC=O)ccc1O | 83.5
89 | OCC1(CO)COCCNCCOCCCOCCNCCO1 | 137 to 140
90 | Cc1ccc(C(=O)C(=O)c2ccc(Br)cc2)cc1 | 132 to 135
91 | O=C(Nc1cc(F)c(N2CC(=O)N(COC3CCCCO3)C2)c(F)c1)OCc1ccccc1 (stereo not given) | 116 to 118
92 | CCCCCCCN(Cc1ccc(C(C)(C)C)cc1)C(Nc1ccc(F)cc1F)=C1C(=O)COC1=O | 89 to 92
93 | CN1CC(C(=O)c2cccn2Cc2ccc(F)cc2)=C(O)C1=O | 150 to 151
94 | COc1cc2c(cc1OC)CC(NC(=O)N(C)O)C2 | 165 to 166
95 | O=C(NCCc1ccccc1)c1ccccc1-c1ccccc1CN1C(=O)c2ccccc2C1=O | 156
